Data reported in patent US20160060642A1, “G Protein Coupled Receptor Libraries” (COMMONWEALTH SCIENTIFIC AND INDUSTRIAL RESEARCH ORGANISATION, priority 2013, published 2016).

Key:
Assay type in all cases: cell-based
ODR-10 [1] = molecular target: T1, ODR-10 (Caenorhabditis elegans, UniProt Q18807); assay: Multiwell (48/96 well) LacZ/ONPG assay of yeast screening strain transformed with odr-10; settings: for Abs414 reading after 3 hours: 500 μM diacetyl
T1 construct: expressed in transfected cells; host or cells: Saccharomyces cerevisiae Cyb-KAGMM (ste2- sst2- far1- gpa1-, gpa1/odr-3 chimaera integrated)
T1 sequence (Q18807 1-339): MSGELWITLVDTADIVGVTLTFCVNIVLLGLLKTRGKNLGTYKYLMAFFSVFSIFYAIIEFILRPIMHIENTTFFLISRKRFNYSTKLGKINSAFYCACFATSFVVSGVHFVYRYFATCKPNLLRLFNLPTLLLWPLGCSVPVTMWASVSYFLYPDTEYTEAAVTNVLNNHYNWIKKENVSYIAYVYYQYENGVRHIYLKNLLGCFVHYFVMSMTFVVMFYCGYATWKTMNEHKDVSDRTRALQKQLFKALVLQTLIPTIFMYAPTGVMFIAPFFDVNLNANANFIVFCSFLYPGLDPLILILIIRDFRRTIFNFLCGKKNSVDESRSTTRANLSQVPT
Method: The method was as follows ([…] from Brouchon-[…] et al., 2003): • 1 mL of Saccharomyces cerevisiae Minimal Medium (SCMM)-His, -Leu was inoculated with a single colony of the screening strain transformed with odr-10 (lacZ/[…]^31 gpa1^-) at Abs600 nm=1, in a 96-well deep well plate. • The plate was incubated overnight (18 hours) at 30° C. with shaking at 900 rpm. • The culture from the well was diluted into fresh wells (96 or 48 well plate) to a final volume of 1 mL at the following yeast cell optical densities: • 1. Abs600=1 • 2. Abs600=0.5 • 3. Abs600=0.5 • Wells 1 and 2 above were induced with 500 μM of a diacetyl solution (made up fresh and kept on ice); 1M: 87 μL diacetyl+913 μL water; then diluted 1/10 in water and 5 μL added to 1 mL cells for a final concentration of 500 μM). All wells were incubated for 30° C. for 18 hours with shaking at 900 rpm. • The plate was centrifuged to pellet the cells, the supernatant was aspirated off and discarded and the pellet was resuspended in 120 μL of lysis buffer (100 mM sodium phosphate buffer, pH 7.5 (consisting of 82 mM Na2HPO4 and […] with 0.1% (w/v) sodium dodecyl sulfate). Initial absorbance was read at 414 nm in a plate-reading spectrophotometer. • The plate was shaken at 900 rpm for 10 min at 30° C. • Thirty microlitres of 2.5 mM o-nitrophenyl-β-D-galactopyranoside (ONPG) (10 mg ONPG dissolved in 130 μL dimethyl formamide is 250 mM, then dilute 1/100 in water for final concentration, which is 2.5 mM) was added and the plate was incubated at room temperature for between 5 minutes and 3 hours. • Eighty microlitres of a 1M Na2CO3 solution was added and the absorbance was read in a plate-based spectrophotometer, either at 414 nm or a spectrum was recorded for each well over the visible region. The assay was repeated with a range of different dilutions (1⁄4 to 1/20) of the starting yeast culture in the wells of either 96 or 48 deep-well plates (the former can contain a total of 2 mL and the latter 5 mL.) Normally dilutions required to reach Abs600 nm=1 are in the range of 1⁄2 to 1⁄4. This experiment probed a set of higher dilutions. Incubation was for 17 hours at 30° C. and 900 rpm shaking. […] In 96 well plates, the higher cell dilutions consistently gave the better diacetyl-induced to control ratios (FIG. 11). The best ratio was in the case of the 96-well plate and the 1/20 dilution where the diacetyl-induced absorbance was 0.481 and the uninduced control was 0.079.

ODR-10 [2] = molecular target: T1, ODR-10; assay: 96-well LacZ/ONPG screen, positive control odr-10; settings: 500 μM diacetyl
ODR-10 [3] = molecular target: T1, ODR-10; assay: LacZ reporter assay (ONPG workup) in Cyb-KAGMM yeast expressing ODR-10; settings: ONPG substrate
ODR-10 [4] = molecular target: T1, ODR-10; assay: GFP reporter assay in Cyb-KAGMM yeast expressing ODR-10
[5] = molecular target: odr-10 non-functional mutant H110Y (Caenorhabditis elegans, UniProt Q18807, H110Y); settings: 500 μM diacetyl; wells H11 and H12

With `CC(=O)C(C)=O` [diacetyl, butane-2,3-dione] the “Abs414 reading after 3 hours” value (ODR-10 [1]; Abs600 nm=0.5 starting condition) was 0.521, the “Abs414 reading after 3 hours” value (ODR-10 [1]; Abs600 nm=1 starting condition) was 0.247 and the “diacetyl-induced absorbance (Abs414 nm)” value (ODR-10 [1]; 96-well plate, 1/20 dilution of starting culture, 17 hours incubation) was 0.481. The “induction of lacZ” value (ODR-10 [1]; dilutions 1/4 to 1/20 of starting culture in 96 or 48 deep-well plates) was “detected in all the conditions except the 1/20 cell dilution in the 48 well plate”, the “response (yellow colour, spectral peak at 420 nm)” value (ODR-10 [2]; clone in well H9) was “responds” and the “response (colour or spectra)” value (ODR-10 [2]; clone in well H10) was “did not show any response”. The “maximum increase in signal over background” value (ODR-10 [3]; 700 μM diacetyl, LacZ driven by FUS-2 (so in the source), FIG. 8) was “approximately 6 fold”, the “maximum ligand-induced increase in signal” value (ODR-10 [3]; 1 mM diacetyl, LacZ under FUS-1 promoter, FIG. 9) was “approximately 2.5 fold” and the “GFP fluorescence emission relative to uninduced” value (ODR-10 [4]; 50 μM diacetyl, pGK:Odr10 with Fig2:GFP (FIG. 5 panel C)) was “below the uninduced condition”. The “difference between the peak GFP responses with ODR-10 expression and for the vector control” value (ODR-10 [4]; 500 μM diacetyl, best case (FIG. 5a, pGK:Odr10 with Fus1:GFP), 7 hrs induction) was “less than a twofold difference” and the “response (spectra)” value [5] was “did not show any response”.
